Measured values from US20230011571A1, “SMALL MOLECULE FURIN INHIBITORS FOR TREATING INFECTIOUS DISEASES” (BP Asset V, Inc., priority 2019, published 2023).
Counter-ions that a name gives are not always drawn.

Legend:
Format in all cases: cell-based
Marburg virus (MARV) = test: organism not typed; conditions: Vero, 72 h, read-out: Percent viral inhibition MARV
[1] = system: Chikungunya virus (CHIKV); test: microbe, parasite or virus in culture; conditions: Chikungunya virus, Vero, 48 h, read-out: Percent viral inhibition CHKV
dengue virus (DENV) = test: microbe, parasite or virus in culture; conditions: Dengue virus, Vero, 120 h, read-out: Percent viral inhibition DENY

Row | SMILES | inhibition at 1 µM (Marburg virus (MARV)) [%] | inhibition at 1 µM [1] [%] | inhibition at 1 µM (dengue virus (DENV)) [%]
1 | CNC(=O)CN1CCN(Cc2cc(Oc3ccc(N4CCNCC4)nc3)nc(-c3cc(Cl)cc(Cl)c3)c2)CC1 [Example 1, 2-(4-((2-(3,5-dichlorophenyl)-6-((6-(piperazin-1-yl)pyridin-3-yl)oxy)pyridin-4-yl)methyl)piperazin-1-yl)-N-methylacetamide] | 0 | 6.99 | 0
2 | CC(=O)NCC1(O)CCN(Cc2cc(Oc3ccc(N4CCNCC4)nc3)nc(-c3cc(Cl)cc(Cl)c3)c2)CC1 [Example 2, N-((1-((2-(3,5-dichlorophenyl)-6-((6-(piperazin-1-yl)pyridin-3-yl)oxy)pyridin-4-yl)methyl)-4-hydroxy-piperidin-4-yl)methyl)acetamide] | 60.4 | 33.8 | 34.3
3 | O=C(O)CC1CCN(Cc2cc(Oc3ccc(N4CCNCC4)nc3)nc(-c3cc(Cl)cc(Cl)c3)c2)CC1 [Example 4, 2-(1-((2-(3,5-dichlorophenyl)-6-((6-(piperazin-1-yl)pyridin-3-yl)oxy)pyridin-4-yl)methyl)piperidin-4-yl) acetic acid] | 70.8 | 18.4 | 16.6
4 | COC(=O)NCC1(O)CCN(Cc2cc(Oc3ccc(N4CCNCC4)nc3)nc(-c3cc(Cl)cc(Cl)c3)c2)CC1 [Example 6, methyl ((1-((2-(3,5-dichlorophenyl)-6-((6-(piperazin-1-yl)pyridin-3-yl)oxy)pyridin-4-yl)methyl)-4-hydroxypiperidin-4-yl)methyl)carbamate] | 0 | 0 | 0
5 | O=S(=O)(O)CCC1CCN(Cc2cc(Oc3ccc(N4CCNCC4)nc3)nc(-c3cc(Cl)cc(Cl)c3)c2)CC1 [Example 7, 2-(1-((2-(3,5-dichlorophenyl)-6-((6-(piperazin-1-yl)pyridin-3-yl)oxy)pyridin-4-yl)methyl)piperidin-4-yl) ethanesulfonic acid] | 51.9 | 9.36 | 12.9
6 | O=S(=O)(O)CC1CCN(Cc2cc(Oc3ccc(N4CCNCC4)nc3)nc(-c3cc(Cl)cc(Cl)c3)c2)CC1 [Example 8, (1-((2-(3,5-dichlorophenyl)-6-((6-(piperazin-1-yl)pyridin-3-yl)oxy)pyridin-4-yl)methyl)piperidin-4-yl)methanesulfonic acid] | 10.9 | 1.77 | 14.7
7 | CC(=O)NCC1CCN(Cc2cc(Oc3ccc(N4CCN(CC(=O)O)CC4)nc3)nc(-c3cc(Cl)cc(Cl)c3)c2)CC1 [Example 10] | 34.8 | 13.1 | 8.5
8 | CC(=O)NCC1CCN(Cc2cc(Oc3ccc(N4CCN(CCC(=O)O)CC4)nc3)nc(-c3cc(Cl)cc(Cl)c3)c2)CC1 [Example 11, 3-(4-(5-((4-((4-(Acetamidomethyl)piperidin-1-yl)methyl)-6-(3,5-dichlorophenyl)pyridin-2-yl)oxy)pyridin-2-yl)piperazin-1-yl)propanoic acid, 4 hydrochloride] | 41.6 | 17.9 | 30.2
9 | CC(=O)NCC1CCN(Cc2cc(Oc3ccc(N4CCN(CCS(C)(=O)=O)CC4)nc3)nc(-c3cc(Cl)cc(Cl)c3)c2)CC1 [Example 12, N-((1-((2-(3,5-dischlorophenyl)-6-((6-(4-(2-(methylsulfonyl)ethyl)piperazin-1-yl)pyridin-3-yl)oxy)pyridin-4-yl)methyl)piperidin-4-yl)methyl)acetamide] | 44.5 | 24.7 | 58.3
10 | CC(=O)NCC1CCN(Cc2cc(Oc3ccc(N4CCN(CCC(N)=O)CC4)nc3)nc(-c3cc(Cl)cc(Cl)c3)c2)CC1 [Example 13, 3-(4-(5-((4-((4-(acetamidomethyl)piperidin-1-yl)methyl)-6-(3,5-dichlorophenyl)pyridin-2-yl)oxy)pyridin-2-yl)piperazin-1-yl)propanamide] | 25.4 | 15.9 | 26.5
11 | CC(=O)NCC1CCN(Cc2cc(Oc3ccc(N4CCN(CCc5nnn[nH]5)CC4)nc3)nc(-c3cc(Cl)cc(Cl)c3)c2)CC1 [Example 14] | 17.3 | 3.02 | 0
12 | CC(=O)NCC1CCN(Cc2cc(Oc3ccc(N4CCN(C(C)CCS(C)(=O)=O)CC4)nc3)nc(-c3cc(Cl)cc(Cl)c3)c2)CC1 (stereo not drawn) [Example 16] | 28.6 | 4.14 | 41.7
13 | CNC(=O)NCC1CCN(Cc2cc(Oc3cnc(N4CCN(CCC(C)[S+](C)[O-])CC4)nc3)nc(-c3cc(Cl)cc(Cl)c3)c2)CC1 (stereo not drawn) [Example 17, 1-((1-((2-(3,5-chlorophenyl)-6-((2-(4-(3-(methylsulfinyl)butyl)piperazin-1-yl)pyrimidin-5-yl)oxy)pyridin-4-yl)methyl)piperidin-4-yl)methyl)-3-methylurea] | 52.9 | 7.16 | 57.4
14 | CC(=O)NCC1CCN(Cc2cc(Oc3cnc(N4CCN(C(C)CCS(C)(=O)=O)CC4)nc3)nc(-c3cc(Cl)cc(Cl)c3)c2)CC1 (stereo not drawn) [Example 19, N-((1-((2-(3,5-dichlorophenyl)-6-((2-(4-(4-(methylsulfonyl)butan-2-yl)piperazin-1-yl)pyrimidin-5-yl)oxy)pyridin-4-yl)methyl)piperidin-4-yl)methyl)acetamide] | 79.8 | 21.6 | 35.5
15 | CC(CO)N1CCN(c2ncc(Oc3cc(CN4CCC(CC(=O)O)CC4)cc(-c4cc(Cl)cc(Cl)c4)n3)cn2)CC1 (stereo not drawn) [Example 21, 2-(1-((2-(3,5-dichlorophenyl)-6-((2-(4-(1-hydroxypropan-2-yl)piperazin-1-yl)pyrimidin-5-yl)oxy)pyridin-4-yl)methyl)piperidin-4-yl)acetic acid] | 46.4 | 26.2 | 8.18
16 | O=C(O)CC1CCN(Cc2cc(Oc3cnc(N4CCN(C5CC(O)C5)CC4)nc3)nc(-c3cc(Cl)cc(Cl)c3)c2)CC1 (stereo not drawn) [Example 22, 2-(1-((2-(3,5-dichlorophenyl)-6-((2-(4-(3-hydroxycyclobutyl)piperazin-1-yl)pyrimidin-5-yl)oxy)pyridin-4-yl)methyl)piperidin-4-yl)acetic acid] | 52.5 | 26.8 | 64.4
17 | O=C(O)CC1CCN(Cc2cc(Oc3cnc(N4CCN(C(CO)CO)CC4)nc3)nc(-c3cc(Cl)cc(Cl)c3)c2)CC1 [Example 23, 2-(1-((2-(3,5-dichlorophenyl)-6-((2-(4-(1,3-dihydroxypropan-2-yl)piperazin-1-yl)pyrimidin-5-yl)oxy)pyridin-4-yl)methyl)piperidin-4-yl)acetic acid] | 52.5 | 21.6 | 11
18 | C[C@]1(O)C[C@@H](N2CCN(c3ncc(Oc4cc(CN5CCC(CC(=O)O)CC5)cc(-c5cc(Cl)cc(Cl)c5)n4)cn3)CC2)C1 [Example 24, 2-(1-((2-(3,5-dichlorophenyl)-6-((2-(4-((1s,3s)-3-hydroxy-3-methylcyclobutyl)piperazin-1-yl)pyrimidin-5-yl)oxy)pyridin-4-yl)methyl)piperidin-4-yl)acetic acid] | 63.1 | 34.6 | 25.8
19 | C[C@]1(O)C[C@H](N2CCN(c3ncc(Oc4cc(CN5CCC(CC(=O)O)CC5)cc(-c5cc(Cl)cc(Cl)c5)n4)cn3)CC2)C1 [Example 25, 2-(1-((2-(3,5-dichlorophenyl)-6-((2-(4-((1r,3r)-3-hydroxy-3-methylcyclobutyl)piperazin-1-yl)pyrimidin-5-yl)oxy)pyridin-4-yl)methyl)piperidin-4-yl)acetic acid] | 65.5 | 26.3 | 13.7
20 | CC(=O)NCC1CCN(Cc2cc(Oc3ccc(N4CCN([C@H]5C[C@@H](NS(C)(=O)=O)C5)CC4)nc3)nc(-c3cc(Cl)cc(Cl)c3)c2)CC1 [Example 27, N-((1-((2-(3,5-dichlorophenyl)-6-((6-(4-((cis)-3-(methylsulfonamido)cyclobutyl)piperazin-1-yl)pyridin-3-yl)oxy)pyridin-4-yl)methyl)piperidin-4-yl)methyl)acetamide] | 50.3 | 26.8 | 51.1
21 | CC(=O)NCC1CCN(Cc2cc(Oc3ccc(N4CCN(CCP(=O)(O)O)CC4)nc3)nc(-c3cc(Cl)cc(Cl)c3)c2)CC1 [Example 30, (2-(4-(5-((4-((4-(acetamidomethyl)piperidin-1-yl)methyl)-6-(3,5-dichlorophenyl)pyridin-2-yl)oxy)pyridin-2-yl)piperazin-1-yl)ethyl)phosphonic acid] | 15.5 | 10.1 | 44.3
22 | CC(=O)NCC1CCN(Cc2cc(Oc3ccc(N4CCN(CCOC(N)=O)CC4)nc3)nc(-c3cc(Cl)cc(Cl)c3)c2)CC1 [Example 31, 2-(4-(5-((4-((4-(acetamidomethyl)piperidin-1-yl)methyl)-6-(3,5-dichlorophenyl)pyridin-2-yl)oxy)pyridin-2-yl)piperazin-1-yl)ethylcarbamate] | 61.4 | 18.7 | 38.9
23 | CC(=O)NCC1CCN(Cc2cc(Oc3ccc(N4CCN(CCN(C)S(C)(=O)=O)CC4)nc3)nc(-c3cc(Cl)cc(Cl)c3)c2)CC1 [Example 32, N-((1-((2-(3,5-dichlorophenyl)-6-((6-(4-(2-(N-methylmethylsulfonamido)ethyl)piperazin-1-yl)pyridin-3-yl)oxy)pyridin-4-yl)methyl)piperidin-4-yl)methyl)acetamide] | 63.5 | 49.4 | 34.2
24 | CC(=O)NCC1CCN(Cc2cc(Oc3ccc(N4CCN(C(=O)CCC(=O)O)CC4)nc3)nc(-c3cc(Cl)cc(Cl)c3)c2)CC1 [Example 33, 4-(4-(5-((4-((4-(acetamidomethyl)piperidin-1-yl)methyl)-6-(3,5-dichlorophenyl)pyridin-2-yl)oxy)pyridin-2-yl)piperazin-1-yl)-4-oxobutanoic acid] | 67.3 | 36.5 | 49.4
